# Results: US20110150821A1, “METHODS AND CROSSLINKED POLYMER COMPOSITIONS FOR CARTILAGE REPAIR” (ANGIOTECH PHARMACEUTICALS (US), INC., priority 2004, published 2011)
# Legend:
# [1] = cited from earlier work
# [2] = test system: Chick Chorioallantoic Membrane (CAM) vasculature; experiment: Chick chorioallantoic membrane (CAM) angiogenesis assay; conditions: for INHIBITION/N: 48 hours exposure; for effect on angiogenesis: 48 hours after application to the CAM
# [3] = within 48 hours, depending on concentration
SMILES,solubility in water [1],INHIBITION/N ([2]; 1 μg in methylcellulose (10 μl) disk on CAM),INHIBITION/N ([2]; 5 μg in methylcellulose (10 μl) disk on CAM),INHIBITION/N ([2]; 10 μg in methylcellulose (10 μl) disk on CAM),effect on angiogenesis [2],"maximal avascular zone diameter [2, 3]","maximal avascular zone on the avascular gradient scale [2, 3]"
O=C1c2c(O)ccc(O)c2C(=O)c2c(NCCNCCO)ccc(NCCNCCO)c21 [mitoxantrone],insoluble in water,18/24,21/24,18/22,angiogenesis was inhibited,6 mm,3
CC(=O)O[C@H]1C(=O)[C@@]2(C)[C@H]([C@H](OC(=O)c3ccccc3)[C@]3(O)C[C@H](OC(=O)[C@H](O)[C@@H](NC(=O)c4ccccc4)c4ccccc4)C(C)=C1C3(C)C)[C@]1(OC(C)=O)CO[C@@H]1C[C@@H]2O [paclitaxel],–,–,–,–,angiogenesis was inhibited,–,3
